In patent US20260347373A1, “HETEROCYCLIC COMPOUNDS, COMPOSITIONS THEREOF, AND METHODS OF TREATMENT THEREWITH” (BeOne Medicines I GmbH, priority 2023, published 2026):
Where two headings read alike, the source gives them in different places.

Tests used:
WT KRAS = WT KRAS (Homo sapiens, UniProt P01116); experiment: KRAS WT Probe Displacement Assay (TR-FRET, GDP-loaded); type: binding
From the text: (§1) The synthetic routes of probe 1 and 2, which have been disclosed in PCT/CN2022/070676, are hereby incorporated herein.

KRAS G12D = KRAS G12D (Homo sapiens, UniProt P01116, G12D); experiment: KRAS G12D Probe Displacement Assay (TR-FRET, GDP-loaded); type: binding
KRAS G12D, sequence (P01116 1-188 isoform P01116-2 G12D): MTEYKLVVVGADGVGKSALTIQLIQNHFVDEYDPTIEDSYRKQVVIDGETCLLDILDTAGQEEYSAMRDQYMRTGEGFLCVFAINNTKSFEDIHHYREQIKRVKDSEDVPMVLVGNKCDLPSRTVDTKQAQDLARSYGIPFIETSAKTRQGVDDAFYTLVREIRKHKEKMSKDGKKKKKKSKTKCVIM
From the text: as §1

[1] = KRAS WT, read-out: KRAS^WT Probe Displacement Assay IC50
[2] = KRAS G12D, read-out: KRAS^G12D Probe Displacement Assay IC50

WT KRAS, sequence (P01116 1-188 isoform P01116-2): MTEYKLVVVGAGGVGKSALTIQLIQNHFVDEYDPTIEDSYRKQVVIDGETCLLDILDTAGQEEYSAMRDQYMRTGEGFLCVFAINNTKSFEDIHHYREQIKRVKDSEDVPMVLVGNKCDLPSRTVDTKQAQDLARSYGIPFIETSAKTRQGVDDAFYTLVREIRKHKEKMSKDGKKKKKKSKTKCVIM

Structure (SMILES)	IC50 (WT KRAS; [1])	IC50 (KRAS G12D; [2])	IC50 (WT KRAS; KRAS^WT Probe Displacement Assay IC50, KRAS WT)	IC50 (KRAS G12D; KRAS^G12D Probe Displacement Assay IC50, KRAS G12D)
CO[C@H]1CN2C[C@H](F)C[C@]2(COc2nc3c4c(nc(-c5cc(N)cc(C)c5C(F)(F)F)c(F)c4n2)OCC[C@@H]2[C@@H]4CC[C@H](CN32)N4)C1 [Example 214, 3-((6aR,7S,10R)-1-fluoro-13-(((2R,6R,7aS)-2-fluoro-6-methoxytetrahydro-1H-pyrrolizin-7a(5H)-yl)methoxy)-5,6,6a,7,8,9,10,11-octahydro-4-oxa-3,11a,12,14,15-pentaaza-7,10-methanocyclohepta[4,5]cycloocta[1,2,3-de]naphthalen-2-yl)-5-methyl-4-(trifluoromethyl)aniline]	3 to 1000 nM	< 0.3 nM	–	–
Cc1cc(N)cc(-c2nc3c4c(nc(OCC5(CN6CC(C)OC(C)C6)CC5(F)F)nc4c2F)N2C[C@H]4CC[C@H](N4)[C@H]2CCO3)c1C(F)(F)F (single isomer, unassigned) [Example 24]	3 to 1000 nM	0.3 to 3 nM	–	–
Cc1cc(N)cc(-c2nc3c4c(nc(OCC5(CN6CCN(C7CC7)CC6)CC5)nc4c2F)N2C[C@H]4CC[C@H](N4)[C@H]2CCO3)c1C(F)(F)F [Example 192, 3-((6aR,7S,10R)-13-((1-((4-cyclopropylpiperazin-1-yl)methyl)cyclopropyl)methoxy)-1-fluoro-5,6,6a,7,8,9,10,11-octahydro-4-oxa-3,11a,12,14,15-pentaaza-7,10-methanocyclohepta[4,5]cycloocta[1,2,3-de]naphthalen-2-yl)-5-methyl-4-(trifluoromethyl)aniline]	0.3 to 3 nM	< 0.3 nM	–	–
CCN1CCN(CC2(COc3nc4c5c(nc(-c6cc(N)cc(C)c6C(F)(F)F)c(F)c5n3)OCC[C@@H]3[C@@H]5CC[C@H](CN43)N5)CC2)CC1 [Example 152, 3-((6aR,7S,10R)-13-((1-((4-ethylpiperazin-1-yl)methyl)cyclopropyl)methoxy)-1-fluoro-5,6,6a,7,8,9,10,11-octahydro-4-oxa-3,11a,12,14,15-pentaaza-7,10-methano-cyclohepta[4,5]cycloocta [1,2,3-de]naphthalen-2-yl)-5-methyl-4-(trifluoromethyl) aniline]	–	–	3 to 1000 nM	< 0.3 nM
Cc1cc(N)cc(-c2nc3c4c(nc(N5CC(N(C)C)C5)nc4c2F)N2C[C@H]4CC[C@H](N4)[C@H]2CCO3)c1C(F)(F)F [Example 32, 1-((6aR,7S,10R)-2-(5-amino-3-methyl-2-(trifluoromethyl)phenyl)-1-fluoro-5,6,6a,7,8,9,10,11-octahydro-4-oxa-3,11a,12,14,15-pentaaza-7,10-methanocyclohepta[4,5]cycloocta [1,2,3-de]naphthalen-13-yl)-N,N-dimethylazetidin-3-amine]	3 to 1000 nM	0.3 to 3 nM	–	–
Cc1cc(N)cc(-c2nc3c4c(nc(OCC5(C)CC(F)CN(C6CCOCC6)C5)nc4c2F)N2C[C@H]4CC[C@H](N4)[C@H]2CCO3)c1C(F)(F)F (single isomer, unassigned) [Example 234]	3 to 1000 nM	0.3 to 3 nM	–	–
CO[C@@H]1CCN(CC2(COc3nc4c5c(nc(-c6cc(N)cc(C)c6C(F)(F)F)c(F)c5n3)OCC[C@@H]3[C@@H]5CC[C@H](CN43)N5)CC2)C[C@@H]1F [Example 184, 3-((6aR,7S,10R)-1-fluoro-13-((1-(((3S,4R)-3-fluoro-4-methoxypiperidin-1-yl)methyl)cyclopropyl)methoxy)-5,6,6a,7,8,9,10,11-octahydro-4-oxa-3,11a,12,14,15-pentaaza-7,10-methanocyclohepta[4,5]cycloocta[1,2,3-de]naphthalen-2-yl)-5-methyl-4-(trifluoromethyl)aniline]	3 to 1000 nM	< 0.3 nM	–	–
Cc1cc(N)cc(-c2nc3c4c(nc(OCC5(F)COCC5N(C)C)nc4c2F)N2C[C@H]4CC[C@H](N4)[C@H]2CCO3)c1C(F)(F)F (stereo partly drawn) [Example 132, 4-((((6aR,7S,10R)-2-(5-amino-3-methyl-2-(trifluoromethyl)phenyl)-1-fluoro-5,6,6a,7,8,9,10,11-octahydro-4-oxa-3,11a,12,14,15-pentaaza-7,10-methanocyclohepta[4,5]cycloocta [1,2,3-de]naphthalen-13-yl)oxy)methyl)-4-fluoro-N,N-dimethyltetrahydrofuran-3-amine]	3 to 1000 nM	0.3 to 3 nM	–	–
[2H]C([2H])([2H])c1cc(N)cc(-c2nc3c4c(nc(OC[C@@]5(CN(C)C)CC5(F)F)nc4c2F)N2C[C@H]4CC[C@H](N4)[C@H]2CCO3)c1C(F)(F)F [Example 46, 3-((6aR,7S,10R)-13-(((S)-1-((dimethylamino)methyl)-2,2-difluorocyclopropyl)methoxy)-1-fluoro-5,6,6a,7,8,9,10,11-octahydro-4-oxa-3,11a,12,14,15-pentaaza-7,10-methanocyclohepta[4,5]cycloocta [1,2,3-de]naphthalen-2-yl)-5-(methyl-d3)-4-(trifluoromethyl)aniline]	3 to 1000 nM	< 0.3 nM	–	–
Cc1cc(N)cc(-c2nc3c4c(nc(OC[C@@]56CCCN5CC(=C(F)F)C6)nc4c2F)N2C[C@H]4CC[C@H](N4)[C@H]2CCO3)c1C(F)(F)F [Example 200, 3-((6aR,7S,10R)-13-(((S)-2-(difluoromethylene)tetrahydro-1H-pyrrolizin-7a(5H)-yl)methoxy)-1-fluoro-5,6,6a,7,8,9,10,11-octahydro-4-oxa-3,11a,12,14,15-pentaaza-7,10-methanocyclohepta[4,5]cycloocta[1,2,3-de]naphthalen-2-yl)-5-methyl-4-(trifluoromethyl)aniline]	3 to 1000 nM	< 0.3 nM	–	–
C=CCN1CCC[C@H]1[C@H](C)Oc1nc2c3c(nc(-c4cc(N)cc(C)c4C(F)(F)F)c(F)c3n1)OCC[C@@H]1[C@@H]3CC[C@H](CN21)N3 [Example 231, 3-((6aR,7S,10R)-13-((S)-1-((S)-1-allylpyrrolidin-2-yl)ethoxy)-1-fluoro-5,6,6a,7,8,9,10,11-octahydro-4-oxa-3,11a,12,14,15-pentaaza-7,10-methanocyclohepta[4,5]cycloocta[1,2,3-de]naphthalen-2-yl)-5-methyl-4-(trifluoromethyl)aniline]	3 to 1000 nM	< 0.3 nM	–	–
Cc1cc(N)cc(-c2nc3c4c(nc(OCC5(CN6CC=C(F)CC6)CC5)nc4c2F)N2C[C@H]4CC[C@H](N4)[C@H]2CCO3)c1C(F)(F)F [Example 178, 3-((6aR,7S,10R)-1-fluoro-13-((1-((4-fluoro-3,6-dihydropyridin-1(2H)-yl)methyl)cyclopropyl)methoxy)-5,6,6a,7,8,9,10,11-octahydro-4-oxa-3,11a,12,14,15-pentaaza-7,10-methanocyclohepta[4,5]cycloocta[1,2,3-de]naphthalen-2-yl)-5-methyl-4-(trifluoromethyl)aniline]	3 to 1000 nM	< 0.3 nM	–	–
CN(C)CC1(COc2nc3c4c(nc(-c5cc(N)cc(Cl)c5C(F)(F)F)c(F)c4n2)OCC[C@@H]2[C@@H]4CC[C@H](CN32)N4)CC1F (single isomer, unassigned) [Example 52]	0.3 to 3 nM	< 0.3 nM	–	–
Cc1cc(N)cc(-c2nc3c4c(nc(OCC5(C6CCCN6C)CC5)nc4c2F)N2C[C@H]4CC[C@H](N4)[C@H]2CCO3)c1C(F)(F)F (single isomer, unassigned) [Example 133]	3 to 1000 nM	< 0.3 nM	–	–
